Entries after “also recorded” stand apart in the source; their conditions may differ.
Test system: JeKo-1 MCL xenograft tumors
Assay: JeKo-1 MCL cell line-derived xenograft mouse study
Assay type: in vivo, NOD.Scid mice
Settings: for tumor response to single-agent treatment: n=8/arm, low dose LP-284 (2 mg/kg i.v.), bortezomib 1 mg/kg i.p. or ibrutinib 50 mg/kg p.o.; for tumor volume: at day 17, on bortezomib (1 mg/kg i.p.) or ibrutinib (50 mg/kg p.o.), tumors refractory; for tumor size: day 16, treated by bortezomib (1 mg/kg, i.p.) or ibrutinib (50 mg/kg, p.o.)
Description: The JeKo-1 MCL cell line-derived xenograft mice (n=8/arm) were treated with vehicle, LP-284 (2 mg/kg or 4 mg/kg, i.v.), bortezomib (1 mg/kg, i.p.), or ibrutinib (50 mg/kg, p.o.) at days indicated by arrows in the graph. Tumor volumes were measured every 2 to 4 days after treatment initiation.
The two drugs were replaced with one cycle of 4 mg/kg LP-284 or the vehicle (saline).
Each treatment arm was then further split into two sub-arms (n=4/sub-arm), one of which was treated by vehicle whereas the other was treated by 4 mg/kg LP-284 (i.v.), as indicated by arrows in the graph.
Five-week old NOD.Scid mice were procured through Envigo (Item 17003F). Mice were fed Teklad irradiated (sterilized) mouse diet and bedded with Teklad irradiated (sterilized) corncob bedding from Envigo (Indianapolis, IN). Mice were housed in Optimice carousel sterile quarters with filtered air supply in disposable cages from Animal Care Systems, Inc. (Centennial, CO). A total of 1×10^7 cells JeKo-1 cells were injected subcutaneously into the right hind flank of each animal using a […] needle. Vehicle (saline), 4 mg/kg or 2 mg/kg LP-284 was administered as an intravenous injection on day 1, 3, 5, 7, 9, 17, 19, 21, 23, 25. 50 mg/kg ibrutinib was administered orally daily on day 1-16. 1 mg/kg bortezomib administered as an intraperitoneal injection on day 1, 4, 7, 10. The ibrutinib and bortezomib arms were further treated with vehicle or 4 mg/kg LP-284 intravenously on day 17, 19, 21, 23, 25. Tumors were measured in two dimensions using calipers, and volume was calculated using the formula:
TumorVolume (mm^3)=w2×l/2
where w=width and l=length, in mm, of the tumor. For this study the calipers were aligned to the tumor edges (the tumors were not squeezed with the caliper).

Row | Structure (SMILES) | survival versus vehicle (Kaplan-Meier) (bortezomib or ibrutinib pre-treated and refractory xenograft mice switched to 4 mg/kg LP-284 i.v., p<0.001) | tumor response to single-agent treatment | tumor response after switching bortezomib- or ibrutinib-refractory mice to LP-284 (one cycle of 4 mg/kg LP-284 i.v. on day 17, 19, 21, 23, 25, tumors ~2000 mm3, n=4/sub-arm, 4 mg/kg) | tumor volume | tumor size | tumor response to single-agent treatment (listed as Bortezomib) | tumor response to single-agent treatment (listed as Ibrutinib)
1 | CC1=C(CN(O)C(N)=O)C2=C(C)C3(CC3)[C@](C)(O)C(=O)C2=C1 [LP-284, (+)-hydroxyureamethyl acylfulvene] | approximately two times longer; also recorded: prolonged survival | resulted in refractory cancer after initially controlling cell growth in tumors | almost completely eliminating; also recorded: near complete tumor regression; also recorded: diminished rapidly | – | – | – | –
2 | CC(C)C[C@H](NC(=O)[C@H](Cc1ccccc1)NC(=O)c1cnccn1)B(O)O [bortezomib, [(1R)-3-methyl-1-({(2S)-3-phenyl-2-[(pyrazin-2-ylcarbonyl)amino]propanoyl}amino)butyl]boronic acid] | – | refractory | – | ~2000 mm3 | ~2000 mm3 | resulted in refractory cancer after initially controlling cell growth in tumors; also recorded: become refractory and relapse | –
3 | C=CC(=O)N1CCC[C@@H](n2nc(-c3ccc(Oc4ccccc4)cc3)c3c(N)ncnc32)C1 [ibrutinib, (R)-1-(3-(4-amino-3-(4-phenoxyphenyl)-1H-pyrazolo[3,4-d]pyrimidin-1-yl)piperidin-1-yl) prop-2-en-1-one] | – | refractory | – | ~2000 mm3 | ~2000 mm3 | – | resulted in refractory cancer after initially controlling cell growth in tumors; also recorded: become refractory and relapse

— patent US20250099406A1, “TREATING CANCERS WITH COMBINATIONS OF ACYLFULVENES WITH IBRUTINIB AND/OR BORTEZOMIB” (LANTERN PHARMA INC., priority 2022, published 2025)
